PubChem BioAssay (NCI)
“And” between values parts separate entries of the source, which are not always exact repeats. Identical values can stand only once.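 Method: 48-hour compound exposure of cells in 96-well plates, five concentrations, linear interpolation of endpoints. GI50 is the concentration that inhibits growth by half. TGI: total growth inhibition.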

How the values were obtained:
Assay in all cases: growth of human tumour cells (NCI), 48 h
OVCAR-5 ovarian = test system: OVCAR-5 ovarian
786-0 renal = test system: 786-0 renal
NCI-H23 lung = test system: NCI-H23 lung
HL-60(TB) leukemia = test system: HL-60(TB) leukemia
DU-145 prostate = test system: DU-145 prostate
UACC-257 melanoma = test system: UACC-257 melanoma
ACHN renal = test system: ACHN renal
BT-549 breast = test system: BT-549 breast
MDA-MB-231 breast = test system: MDA-MB-231 breast
OVCAR-3 ovarian = test system: OVCAR-3 ovarian

Row | Structure (SMILES) | GI50 (OVCAR-5 ovarian) [µM] | TGI (OVCAR-5 ovarian) | GI50 (786-0 renal) [µM] | TGI (786-0 renal) [µM] | GI50 (NCI-H23 lung) [µM] | TGI (NCI-H23 lung) | GI50 (HL-60(TB) leukemia) [µM] | TGI (HL-60(TB) leukemia) | GI50 (DU-145 prostate) [µM] | TGI (DU-145 prostate) | GI50 (UACC-257 melanoma) [µM] | TGI (UACC-257 melanoma) | GI50 (ACHN renal) | TGI (ACHN renal) [µM] | GI50 (BT-549 breast) | TGI (BT-549 breast) [µM] | GI50 (MDA-MB-231 breast) [µM] | TGI (MDA-MB-231 breast) [µM] | GI50 (OVCAR-3 ovarian) [µM] | TGI (OVCAR-3 ovarian)
1 | NC(=NCCCOc1ccc(Cl)cc1)Nc1ccc(Cl)cc1 | 2.02 | 6.56 µM | 2.15 | 6.67 | 2.31 | 7.43 µM | 1.88 | 4.58 µM | 2.67 | 7.73 µM | 1.91 | 3.84 µM | 2.01 µM | 5.31 | 3.35 µM | 10 | 1.97 | 4.56 | 2.84 | 8.09 µM
2 | CC(C)[C@@]12C[C@@H](OC(=O)[C@H]3CO3)[C@@](C)(O1)[C@@H]1CC[C@@H](C)[C@H]1[C@@H]2OC(=O)/C=C/c1ccccc1 | 20.5 | 68 µM | 3.55 | 22 | 19.7 | > 100 µM | 13.4 | 44.5 µM | 31.5 | > 100 µM | 19.5 | 50.6 µM | 0.108 µM | 3.07 | 1.34 µM | 13.7 | 12.9 | 38.6 | 12.3 | 30.8 µM
3 | CCOc1ccc([C@@H]2[C@@H](Oc3ccccc3)C(=O)N2c2cc(OC)c(OC)c(OC)c2)cc1 | 0.47 | > 100 µM | 0.0896 | > 100 | 0.467 | > 100 µM | 0.0263 | 0.0691 µM | 0.218 | > 100 µM | 86.4 | > 100 µM | 0.07 µM | > 100 | 0.0681 µM | > 100 | 0.177 | > 100 | 0.0355 | > 100 µM
4 | C/C(=N\NC(=O)c1ccncc1)c1ccc2ccccc2c1O | – | > 100 µM | – | 48.4 | – | > 51 µM | – | 10.3 µM | – | 38.2 µM | – | 24.6 µM | – | > 100 | – | > 100 | – | > 91 | – | 3.59 µM
5 | CC(=O)Nc1ccc(Sc2ccc([N+](=O)[O-])o2)cc1 | 2.34 | 5.9 µM | 2.69 | 7.55 | 2.99 | 10.2 µM | 1.29 | 3.79 µM | 2.26 | 5.98 µM | 1.61 | 3.52 µM | 1.62 µM | 4.29 | 5.22 µM | 10.6 | 2.18 | 4.95 | 0.664 | 1.95 µM
6 | COc1ccc(C(=O)c2ccc(OC)c(OC)c2OC)cc1 | 8.52 | > 100 µM | 9.85 | > 100 | 3.32 | > 100 µM | 0.464 | > 100 µM | 2.14 | 10.6 µM | 3.73 | > 100 µM | 6.56 µM | > 100 | 6.16 µM | > 100 | 3.63 | > 100 | 0.773 | 2.86 µM
7 | CCCCCCCCCCCCCCCCCC1=NCCN1CS(=O)(=O)O | 15.4 | 32.7 µM | 17.7 | 35.3 | 15.4 | 33.4 µM | 14.3 | 39.9 µM | 5.19 | 17.2 µM | 17.1 | 33.9 µM | 13 µM | 28.8 | 19.5 µM | 37.7 | 9.34 | 23.7 | 15 | 33.7 µM
8 | CC[C@H]1CN2CCc3cc(OC)c(OC)cc3[C@@H]2C[C@@H]1C[C@H]1NCCc2cc(O)c(OC)cc21 | – | 0.0751 µM and 0.503 µM | 0.00714 | 0.0381 | – | 0.0584 µM and 0.115 µM | – | 0.0408 µM and 0.031 µM | 0.0233 | 0.0637 µM and 0.137 µM | – | 0.104 µM and 0.346 µM | 0.0221 µM and < 0.0115 µM | 0.0758 | 0.0422 µM and 0.0485 µM | 0.298 | 0.00901 | – | – | 0.0774 µM and 0.287 µM
9 | C1CCN(CCC2CCCCN2)CC1 (configuration not stated) | – | > 100 µM | – | > 100 | – | > 100 µM | – | > 100 µM | – | > 100 µM | – | > 100 µM | – | > 100 | – | > 100 | – | > 100 | – | > 100 µM
10 | CCCCCCCC/C=C/CCCCCCCC1=NCC[N+]1(CCO)CCO | 4.98 | 18.9 µM | 4.8 | 22.1 | 3.05 | 16 µM | 1.75 | 4.68 µM | 4.41 | 16.2 µM | 2.25 | 8.42 µM | 6.11 µM | 20.8 | 3.17 µM | 10.8 | 2.47 | 8.81 | 1.94 | 4.42 µM
11 | C=C(C)[C@@H]1CC[C@]2(C)[C@H](C(=O)C=C3[C@@H]4C[C@](C)(C(=O)N5CCN(C)CC5)CC[C@]4(C)CC[C@]32C)[C@@]1(C)CCC#N | 7.01 | 13.6 µM | 7.03 | 13.7 | 6.97 | 14.3 µM | 4.19 | 11.8 µM | 7.85 | 15.3 µM | 6.39 | 13.9 µM | 7.02 µM | 13.5 | 6.67 µM | 13.4 | 7.58 | 14.6 | 6.33 | 13.2 µM
12 | COc1cc(NCCCCN=C(N)NC(N)=NC(C)C)c2ncccc2c1 | 17.3 | > 88.3 µM | 31 | > 100 | 0.984 | 10.1 µM | 3.47 | 10.9 µM | 21 | > 59.9 µM | 3.26 | 10.5 µM | > 73.7 µM | > 100 | 9.6 µM | 23.9 | 1.94 | 17.8 | 0.311 | 0.897 µM
13 | O=P(O)(O)c1ccccc1 (tested in a mixture with another compound) | – | > 100 µM | – | > 100 | – | > 100 µM | – | > 100 µM | – | > 100 µM | – | > 100 µM | – | > 100 | – | > 100 | – | > 100 | – | > 100 µM
14 | COc1cccc(C2C(C#N)=C(N)Oc3cc(N)ccc32)c1 (configuration not stated) | 1.43 | > 100 µM | 0.632 | > 100 | 0.571 | > 100 µM | 0.35 | 0.745 µM | 0.71 | 34 µM | 0.319 | > 100 µM | 0.762 µM | > 100 | 0.351 µM | 54.3 | 1.29 | 59.6 | 0.337 | 1.03 µM
15 | CCn1c2c(n(CC)c1=S)-c1c(n(CC)c(=S)n1CC)SSSS2 | – | 27.8 µM | – | 28.6 | – | 22.3 µM | – | 8.76 µM | – | > 100 µM | – | 22.6 µM | – | 16 | – | 29.1 | – | 10 | – | 17.9 µM
16 | CCSCC(N)C(=O)O (configuration not stated) | – | > 100 µM | – | > 100 | – | > 100 µM | – | > 100 µM | – | > 100 µM | – | > 100 µM | – | > 100 | – | > 100 | – | > 100 | – | > 100 µM
17 | Cc1cc2cc3cc(C)c(N(C)C)cc3nc2cc1N(C)C | 8.37 | > 100 µM | 3.87 | 16.3 | 1.8 | 20.8 µM | 0.34 | > 100 µM | 3.46 | 25.8 µM | 3.37 | 21.8 µM | 4.76 µM | > 100 | 4.26 µM | 15.6 | 2.33 | 7.59 | 2.54 | 11.1 µM
18 | CC(=O)c1c(C(F)(F)F)n([O-])c2ccc(Cl)cc2[n+]1=O | 2.74 | 18.6 µM | 0.0551 | 0.382 | 1.72 | 6.64 µM | 0.681 | 4.65 µM | 0.158 | 0.576 µM | 4 | 20.8 µM | 0.69 µM | 4.96 | 1.14 µM | 2.65 | 1.3 | 3.27 | 2.64 | 8.13 µM
19 | CN(C)c1ccc(/C=C(/NC(=O)c2ccccc2)c2nc3ccc(Cl)cc3[nH]2)cc1 | – | 97.5 µM | – | > 100 | – | > 100 µM | – | 66.9 µM | 71.5 | > 100 µM | – | > 86.5 µM | – | > 100 | 25.4 µM | 85.8 | 28.4 | > 95.3 | – | > 9.31 µM
